18 molecules from patent publication EP2265631B1, “NOVEL ANTIMICROBIAL PEPTIDES AND THEIR APPLICATION” (Ustav Organicke Chemie a Biochemie Akademie Ved Ceske …, priority 2008, dated 2009) can be followed below.

Ends that are not written are not given here. Peptide text beside a SMILES is read from it.

What all share (type): cell-based
For one data set, the system named is Escherichia coli. Description: Determination of antimicrobial activity (MIC, bacterial growth in LB broth). The note with it: minimum inhibitory concentration (MIC) per method, 37°C, 20 h, read-out: Antimicrobial activity IC50 [µM] E. c. Here is the method: (§1) Antimicrobial activity was determined as a quantitative minimum inhibitory concentration (MIC) by observing bacterial growth in the presence of different concentrations of tested peptides. Mid-exponential phase bacteria were added to the solutions of the tested antimicrobial peptide at different concentrations (0.5 to 100 µM) in LB broth in multi-well plates. The plates were incubated at 37°C for 20 h while being continuously shaken in a Bioscreen C instrument (Finland). The absorbance was measured at 540 nm every 15 min and each peptide was tested at least 3 times in duplicate. 1.2.10^3 - 7.5.10^3 CFU of bacteria was routinely used in the experiments. Tetracycline in a concentration range of 0.1 - 50 µM was tested as a standard.

For another data set, the system named is Bacilus subtilis. The description is as above. The note with it: minimum inhibitory concentration (MIC) per method, 37°C, 20 h, read-out: Antimicrobial activity IC50 [µM] B.s. How it is done: as §1
In another data set the test system is Staphylococcus aureus. The data set is described as above. The note with it: minimum inhibitory concentration (MIC) per method, 37°C, 20 h, read-out: Antimicrobial activity IC50 [µM] S.a. Here is the method:
as §1

In a further data set the test system is Pseudomonnas aeruginosa. The data set is described as above. The note with it: minimum inhibitory concentration (MIC) per method, 37°C, 20 h, read-out: Antimicrobial activity IC50 [µM] P.a. Here is the method:
as §1

The next data set concerns rat red blood cells. Description: Determination of hemolytic activity. Particulars: rat red blood cells (5%), 1 h at 37°C, peptides 1-200 µM. How it is done: The peptides in the concentration (1-200 µM) were incubated with rat red blood cells (5%) for 1 h at 37°C in a physiological solution at a final volume of 0.2 ml. The samples were then centrifuged for 5 min at 250 g, and the absorbance of the supernatant was determined at 540 nm. Supernatants of red blood cells suspended in physiological solution and in 0.2% TRITON X100 in physiological solution served as controls for zero hemolysis (blank) and 100% hemolysis, respectively. Table 3. Antimicrobial and hemolytic activity of melectin (I) and its synthetic analogs of formulas II/1 to II/18

As a reminder, the IC50 is the point on the concentration scale where inhibition reaches its midpoint. In the case of `CC[C@H](C)[C@H](NC(=O)[C@H](CO)NC(=O)[C@H](CC(C)C)NC(=O)[C@H](Cc1ccccc1)NC(=O)CN)C(=O)N[C@@H](CC(C)C)C(=O)N[C@@H](CCCCN)C(=O)N[C@@H](CCCCN)C(=O)N[C@H](C(=O)N[C@@H](CC(C)C)C(=O)N1CCC[C@@H]1C(=O)N[C@@H](CCCCN)C(=O)N[C@H](C(=O)N[C@@H](CCSC)C(=O)N[C@@H](C)C(=O)N[C@@H](Cc1c[nH]cn1)C(=O)N[C@@H](CCSC)C(=O)N[C@@H](CCCCN)C(N)=O)C(C)C)C(C)C` [II/15, H-Gly-Phe-Leu-Ser-Ile-Leu-Lys-Lys-Val-Leu-Pro-Lys-Val-Met-Ala-His-Met-Lys-NH2], the IC50 in the data set with Escherichia coli was 4.2 µM; in the data set on Bacilus subtilis, 1.7 µM; with Staphylococcus aureus it was over 100 µM; in the data set with Pseudomonnas aeruginosa it was 100 µM. The Hemolytic activity entry in the data set with rat red blood cells is reported as “»200 µM”.
As for `CC[C@H](C)[C@H](NC(=O)[C@H](CO)NC(=O)[C@H](CC(C)C)NC(=O)[C@H](Cc1cccc2ccccc12)NC(=O)CN)C(=O)N[C@@H](CC(C)C)C(=O)N[C@@H](CCCCN)C(=O)N[C@@H](CCCCN)C(=O)N[C@H](C(=O)N[C@@H](CC(C)C)C(=O)N1CCC[C@H]1C(=O)N[C@@H](CCCCN)C(=O)N[C@H](C(=O)N[C@@H](CCSC)C(=O)N[C@@H](C)C(=O)N[C@@H](Cc1c[nH]cn1)C(=O)N[C@@H](CCSC)C(=O)N[C@@H](CCCCN)C(N)=O)C(C)C)C(C)C` [II/16, H-Gly-1Nal-Leu-Ser-Ile-Leu-Lys-Lys- V al-Leu-Pro-Lys- V al-Met-Ala-His-Met-Lys-NH2] (HELM PEPTIDE1{G.[O=C([C@H](Cc1cccc2ccccc12)N[*:1])[*:2]].L.S.I.L.K.K.V.L.P.K.V.M.A.H.M.K.[am]}$$$$V2.0), the IC50 stood at 0.4 µM with Escherichia coli, 0.4 µM with Bacilus subtilis, 2.5 µM in the data set with Staphylococcus aureus and 17.3 µM with Pseudomonnas aeruginosa. Further, in the data set on rat red blood cells, the Hemolytic activity is 25 µM.
As for `CCCC[C@H](NC(=O)[C@H](Cc1c[nH]cn1)NC(=O)[C@H](C)NC(=O)[C@H](CCCC)NC(=O)[C@@H](NC(=O)[C@H](CCCCN)NC(=O)[C@@H]1CCCN1C(=O)[C@H](CC(C)C)NC(=O)[C@@H](NC(=O)[C@H](CCCCN)NC(=O)[C@H](CCCCN)NC(=O)[C@H](CC(C)C)NC(=O)[C@@H](NC(=O)[C@H](CO)NC(=O)[C@H](CC(C)C)NC(=O)[C@H](Cc1ccccc1)NC(=O)CN)[C@@H](C)CC)C(C)C)C(C)C)C(=O)N[C@@H](CCCCN)C(N)=O` [II/18, H-Gly-Phe-Leu-Ser-Ile-Leu-Lys-Lys-Val-Leu-Pro-Lys-Val-Nle-Ala-His-Nle-Lys-NH2] (HELM PEPTIDE1{G.F.L.S.I.L.K.K.V.L.P.K.V.[Nle].A.H.[Nle].K.[am]}$$$$V2.0), the IC50 with Escherichia coli was determined as 0.75 µM; in the data set with Bacilus subtilis, 0.2 µM; in the data set on Staphylococcus aureus, 2.5 µM; in the data set on Pseudomonnas aeruginosa, 17.3 µM.
Molecule `CCCC[C@H](NC(=O)[C@H](Cc1cnc[nH]1)NC(=O)[C@H](C)NC(=O)[C@H](CCCC)NC(=O)[C@@H](NC(=O)[C@H](CCCCN)NC(=O)[C@@H]1CCCN1C(=O)[C@H](CC(C)C)NC(=O)[C@@H](NC(=O)[C@H](CCCCN)NC(=O)[C@H](CCCCN)NC(=O)[C@H](CC(C)C)NC(=O)[C@@H](NC(=O)[C@H](CO)NC(=O)[C@H](CC(C)C)NC(=O)[C@H](Cc1ccccc1)NC(=O)CN)[C@@H](C)CC)C(C)C)C(C)C)C(=O)N[C@@H](CCCCN)C(N)=O` [II/18, H-Gly-Phe-Leu-Ser-Ile-Leu-Lys-Lys-Val-Leu-Pro-Lys-Val-Nle-Ala-His-Nle-Lys-NH2] (HELM PEPTIDE1{G.F.L.S.I.L.K.K.V.L.P.K.V.[Nle].A.H.[Nle].K.[am]}$$$$V2.0) gave a Hemolytic activity with rat red blood cells of 50 µM.
For the molecule “GFLSILKKVLGKVMAHMK-NH2 [II/3, H-Gly-Phe-Leu-Ser-lle-Leu-Lys-Lys-Val-Leu-Gly-Lys-Val-Met-Ala-His-Met-Lys-NH2]”, the IC50 is 1.8 µM in the data set on Escherichia coli, 1.3 µM with Bacilus subtilis, 4.3 µM in the data set with Staphylococcus aureus and 14.4 µM in the data set with Pseudomonnas aeruginosa. In the data set with rat red blood cells, this molecule yielded a Hemolytic activity of 41.4 µM.
For “GFLSILKKVLKVMAHMK-NH2 [II/8, H-Gly-Phe-Leu-Ser-Ile-Leu-Lys-Lys-Val-Leu-... -Lys-Val-Met-Ala-His-Met-Lys-NH2]” the same measures were 1.8 µM, 0.9 µM, 5 µM, 27.5 µM and 22.9 µM.
For “H-FLSILKKVLPKVMAHMK-NH2 [II/9, H-Phe-Leu-Ser-Ile-Leu-Lys-Lys-Val-Leu-Pro-Lys-Val-Met-Ala-His-Met-Lys-NH2]”, the IC50 in the data set with Escherichia coli worked out at 9.08 µM; in the data set with Bacilus subtilis, 1.2 µM; with Staphylococcus aureus it was 38.8 µM; in the data set on Pseudomonnas aeruginosa, 62.1 µM. This molecule displayed a Hemolytic activity in the data set on rat red blood cells of over 200 µM.
For “H-GFLSILKKVGPKVMAHMK-NH2 [II/14, H-Gly-Phe-Leu-Ser-Ile-Leu-Lys-Lys-Val-Gly-Pro-Lys-Val-Met-Ala-His-Met-Lys-NH2]” the same measures were 22.5 µM, 1.4 µM, 80 µM, 80 µM and “»200 µM”.
The like results for “H-GFLSILKKVL-NH2 [II/13, H-Gly-Phe-Leu-Ser-Ile-Leu-Lys-Lys-Val-Leu-NH2]” were, in that order, 9.1 µM, 2.9 µM, 10.9 µM, 58.7 µM and over 100 µM.
With “H-GFLSILKKVLAKVMAHMK-NH2 [II/2, H-Gly-Phe-Leu-Ser-Ile-Leu-Lys-Lys-Val-Leu-Ala-Lys-Val-Met-Ala-His-Met-Lys-NH2]”, the IC50 in the data set with Escherichia coli is 1.6 µM; with Bacilus subtilis, 1.3 µM; in the data set with Staphylococcus aureus, 4.7 µM; in the data set on Pseudomonnas aeruginosa it was 18.3 µM. In the data set on rat red blood cells, this molecule came in with a Hemolytic activity of 29.7 µM.
Take “H-GFLSILKKVLKKVMAHMK-NH2 [II/1, H-Gly-Phe-Leu-Ser-Ile-Leu-Lys-Lys-Val-Leu-Lys-Lys-Val-Met-Ala-His-Met-Lys-NH2]”: the IC50 amounted to 1.8 µM in the data set with Escherichia coli, 1.4 µM in the data set on Bacilus subtilis, 13.3 µM in the data set with Staphylococcus aureus and 25.3 µM in the data set with Pseudomonnas aeruginosa. In the data set with rat red blood cells, this molecule showed a Hemolytic activity of 27.3 µM.
The like results for “H-GFLSILKKVLP-NH2 [II/12, H-Gly-Phe-Leu-Ser-Ile-Leu-Lys-Lys-Val-Leu-Pro-NH2]” were, in that order, 78 µM, 13 µM, over 100 µM, over 100 µM and “»200 µM”.
For “H-GFLSILKKVLPKVLAHLK-NH2 [II/5, H-Gly-Phe-Leu-Ser-Ile-Leu-Lys-Lys-Val-Leu-Pro-Lys-Val-Leu-Ala-His-Leu-Lys-NH2]” the same measures were 1.2 µM, 0.8 µM, 5 µM, 20 µM and 43.7 µM.
Turning to “H-GFLSILKKVLPKVMAKMK-NH2 [II/4, H-Gly-Phe-Leu-Ser-Ile-Leu-Lys-Lys-Val-Leu-Pro-Lys-Val-Met-Ala-Lys-Met-Lys-NH2]”, the IC50 in the data set on Escherichia coli was determined as 2.1 µM; with Bacilus subtilis, 0.7 µM; in the data set with Staphylococcus aureus, 16.8 µM; with Pseudomonnas aeruginosa, 33.6 µM. Also, the Hemolytic activity in the data set with rat red blood cells is given as over 100 µM.
The like results for “H-GFLSILKKVLPKVMHAMK-NH2 [II/6, H-Gly-Phe-Leu-Ser-Ile-Leu-Lys-Lys-Val-Leu-Pro-Lys-Val-Met-His-Ala-Met-Lys-NH2]” were, in that order, 2.1 µM, 1.1 µM, 9.1 µM, 35.1 µM and 150 µM.
As for “H-GLSILKKVLKKVMAHMK-NH2 [II/17, H-Gly-...-Leu-Ser-Ile-Leu-Lys-Lys-Val-Leu-Lys-Lys-Val-Met-Ala-His-Met-Lys-NH2]”, in the data set on rat red blood cells, the Hemolytic activity result is “»200 µM”.
For “H-LSILKKVLPKVMAHMK-NH2 [II/10, H-Leu-Ser-Ile-Leu-Lys-Lys- Val-Leu-Pro-Lys-Val-Met-Ala-His-Met-Lys-NH2]”, the IC50 in the data set with Escherichia coli was 76.2 µM; in the data set on Bacilus subtilis, 7.9 µM; with Staphylococcus aureus, over 100 µM; in the data set on Pseudomonnas aeruginosa, over 100 µM. In addition, the Hemolytic activity entry in the data set with rat red blood cells was “»200 µM”.
In the case of “H-SILKKVLPKVMAHMK-NH2 [II/11, H-Ser-Ile-Leu-Lys-Lys-Val-Leu-Pro-Lys-Val-Met-Ala-His-Met-Lys-NH2]”, the IC50 in the data set on Escherichia coli is over 100 µM; in the data set with Bacilus subtilis it was 21.8 µM; in the data set with Staphylococcus aureus it was over 100 µM; in the data set with Pseudomonnas aeruginosa it was over 100 µM. Further, in the data set with rat red blood cells, the Hemolytic activity entry was “»200 µM”.
